Results: patent US7998993B2, “TRPV1 antagonists” (Abbott Laboratories, priority 2007, dated 2011)
Where two headings read alike, the source gives them in different places.

Key:
[1] = Plasma and brain concentrations in rats after an oral dose; type: in vivo; conditions: rat, fasted male Sprague-Dawley rats, two hours after dosing; for Kp at 2 h: brain/plasma
Experimental: The compounds were prepared as a solution in a 10% DMSO/poly(ethylene glycol)-400 (v/v). Blood and brain samples were obtained from each animal two hours after dosing.
Rat brain tissue was homogenized with two parts water (by weight). Test compound was selectively extracted from plasma and brain homogenate using liquid-liquid extraction with tert-butylmethylether. The compounds of interest were separated from co-extracted contaminants on a 50×3 mm, Luna CN column (Phenomenex), with an acetonitrile:0.1% aqueous trifluoroacetic acid mobile phase at a flow rate of 0.35 ml/min. Plasma and tissue concentrations were determined by HPLC-MS/MS on an API2000 with Turbo Ion Spray interface, with MRM detection in the positive ionization mode. To calibrate compound concentration, a separate portion of each tissue sample was spiked with a known quantity of test compound and analyzed simultaneously with the samples.

human TRPV1 receptor = biological target: T1, human TRPV1 receptor (Homo sapiens, UniProt Q8NER1); test: Ca2+ influx assay (FLIPR, Fluo-4 AM) with capsaicin challenge in 1321N1 cells expressing recombinant TRPV1; type: cell-based; conditions: inhibition of 0.05 μM capsaicin response, hTRPV1 in 1321N1 human astrocytoma cells
T1 construct: expressed in transfected cells
T1 sequence (Q8NER1 whole entry): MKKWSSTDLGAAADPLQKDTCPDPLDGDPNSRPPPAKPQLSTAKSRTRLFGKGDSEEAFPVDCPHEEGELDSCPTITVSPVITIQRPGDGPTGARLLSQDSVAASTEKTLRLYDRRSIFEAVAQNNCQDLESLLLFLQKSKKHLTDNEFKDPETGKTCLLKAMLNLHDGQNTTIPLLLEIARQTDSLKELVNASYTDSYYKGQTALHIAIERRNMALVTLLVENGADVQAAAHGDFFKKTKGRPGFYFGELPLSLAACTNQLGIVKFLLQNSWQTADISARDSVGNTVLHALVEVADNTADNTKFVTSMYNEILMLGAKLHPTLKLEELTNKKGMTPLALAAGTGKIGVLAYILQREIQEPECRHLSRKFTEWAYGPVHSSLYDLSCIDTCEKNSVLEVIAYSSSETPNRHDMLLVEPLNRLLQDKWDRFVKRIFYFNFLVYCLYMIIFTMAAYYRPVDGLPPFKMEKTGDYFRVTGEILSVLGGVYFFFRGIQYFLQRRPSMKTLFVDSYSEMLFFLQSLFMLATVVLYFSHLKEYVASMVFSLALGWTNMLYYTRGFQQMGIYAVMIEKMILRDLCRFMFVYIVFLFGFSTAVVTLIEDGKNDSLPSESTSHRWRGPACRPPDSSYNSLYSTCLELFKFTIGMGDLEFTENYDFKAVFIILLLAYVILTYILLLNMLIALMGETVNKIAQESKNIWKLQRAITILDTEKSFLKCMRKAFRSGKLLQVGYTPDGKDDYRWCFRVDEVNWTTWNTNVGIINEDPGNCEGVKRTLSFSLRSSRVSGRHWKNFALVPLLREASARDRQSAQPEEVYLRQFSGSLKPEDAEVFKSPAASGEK
Experimental: Dulbecco's modified Eagle medium (D-MEM) (with 4.5 mg/mL glucose) and fetal bovine serum were obtained from Hyclone Laboratories, Inc. (Logan, Utah). Dulbecco's phosphate-buffered saline (D-PBS) (with 1 mg/mL glucose and 3.6 mg/l Na pyruvate, without phenol red), L-glutamine, hygromycin B, and Lipofectamine® were obtained from Life Technologies (Grand Island, N.Y.). G418 sulfate was obtained from Calbiochem-Novabiochem Corp. (San Diego, Calif.). Capsaicin (8-methyl-N-vanillyl-6-nonenamide) was obtained from Sigma-Aldrich, Co. (St. Louis, Mo.). Fluo-4 AM (N-[4-[6-[(acetyloxy)methoxy]-2,7-difluoro-3-oxo-3H-xanthen-9-yl]-2-[2-[2-[bis[2-[(acetyloxy)methoxy]-2-oxyethyl]amino]-5-methy lphenoxy]ethoxy]phenyl]-N-[2-[(acetyloxy)methoxy]-2-oxyethyl]-glycine, (acetyloxy)methyl ester) was purchased from Molecular Probes (Eugene, Oreg.).
The cDNAs for the human TRPV1 receptor were isolated by reverse transcriptase-polymerase chain reaction (RT-PCR) from human small intestine poly A+RNA supplied by Clontech (Palo Alto, Calif.) using primers designed surrounding the initiation and termination codons identical to the published sequences (Hayes et al. Pain Vol. 88 pages 205-215, 2000). The resulting cDNA PCR products were subcloned into pCIneo mammalian expression vector (Promega) and fully sequenced using fluorescent dye-terminator reagents (Prism, Perkin-Elmer Applied Biosystems Division) and a Perkin-Elmer Applied Biosystems Model 373 DNA sequencer or Model 310 genetic analyzer. Expression plasmids encoding the hTRPV1 cDNA were transfected individually into 1321N1 human astrocytoma cells using Lipofectamine®. Forty-eight hours after transfection, the neomycin-resistant cells were selected with growth medium containing 800 μg/mL Geneticin (Gibco BRL). Surviving individual colonies were isolated and screened for TRPV1 receptor activity. Cells expressing recombinant homomeric TRPV1 receptors were maintained at 37° C. in D-MEM containing 4 mM L-glutamine, 300 μg/mL G418 (Cal-biochem) and 10% fetal bovine serum under a humidified 5% CO2 atmosphere.
The functional activity of compounds at the TRPV1 receptor was determined with a Ca^2+ influx assay and measurement of intracellular Ca^2+ levels ([Ca^2+]i). All compounds were tested over an 11-point half-log concentration range. Compound solutions were prepared in D-PBS (4× final concentration), and diluted serially across 96-well v-bottom tissue culture plates using a Biomek 2000 robotic automation workstation (Beckman-Coulter, Inc., Fullerton, Calif.). A 0.2 μM solution of the TRPV1 agonist capsaicin was also prepared in D-PBS. The fluorescent Ca^2+ chelating dye Fluo-4 AM was used as an indicator of the relative levels of [Ca^2+]i in a 96-well format using a Fluorescence Imaging Plate Reader (FLIPR)(Molecular Devices, Sunnyvale, Calif.). Cells were grown to confluency in 96-well black-walled tissue culture plates. Then, prior to the assay, the cells were loaded with 100 μL per well of Fluo-4 AM (2 μM, in D-PBS) for 1-2 hours at 23° C. Washing of the cells was performed to remove extracellular Fluo-4 AM (2×1 mL D-PBS per well), and afterward, the cells were placed in the reading chamber of the FLIPR instrument. 50 μL of the compound solutions were added to the cells at the 10 second time mark of the experimental run. Then, after a 3-minute time delay, 50 μL of the capsaicin solution was added at the, 190 seconds time mark (0.05 μM final concentration)([…]) to challenge the TRPV1 receptor. Time length of the experimental run was 240 seconds. Fluorescence readings were made at 1 to 5 second intervals over the course of the experimental run. The peak increase in relative fluorescence units (minus baseline) was calculated from the 190 seconds time mark to the end of the experimental run, and expressed as a percentage of the 0.05 μM capsaicin (control) response.

[2] = brain, 30 μmol/kg oral, read-out: [Brain]
[3] = plasma, 30 μmol/kg oral, read-out: [Plasma]
[4] = brain, 10 μmol/kg PO, read-out: [Brain]
[5] = plasma, 10 μmol/kg PO, read-out: [Plasma]

Row | SMILES | Kp at 2 h ([1]; 30 μmol/kg oral) | concentration at 2 h [1, 2] [ng/g] | concentration at 2 h [1, 3] [µg/mL] | Kp at 2 h ([1]; 10 μmol/kg PO) | concentration at 2 h [1, 4] [ng/g] | concentration at 2 h [1, 5] [µg/mL] | IC50 (human TRPV1 receptor) [µM]
1 | Cc1nc(Nc2cccc3c2CC(O)CC3)oc1-c1ccc(C(F)(F)F)cc1 (stereo not drawn) [Compound 12, 8-({4-methyl-5-[4-(trifluoromethyl)phenyl]-1,3-oxazol-2-yl}amino)-1,2,3,4-tetrahydronaphthalen-2-ol] | 6.3 | 3300 | 0.49 |  |  |  | 
2 | Cc1nc(Nc2cccc3c2CC(O)CO3)oc1-c1ccc(C(F)(F)F)cc1 (stereo not drawn) [Compound 51, 5-({4-methyl-5-[4-(trifluoromethyl)phenyl]-1,3-oxazol-2-yl}amino)chroman-3-ol] |  |  |  | 2.7 | 800 | 0.3 | 0.618
3 | C=C(C)[C@H]1CC=C(c2oc(Nc3cccc4c3CC(O)CC4)nc2C)CC1 (stereo partly drawn) [Compound 32, 8-({5-[(4R)-4-isopropenylcyclohex-1-en-1-yl]-4-methyl-1,3-oxazol-2-yl}amino)-1,2,3,4-tetrahydronaphthalen-2-ol] |  |  |  | 1.9 | 15 | 0.009 | 0.395
4 | CCc1nc(Nc2cccc3c2C[C@H](O)CC3)oc1-c1ccc(C(F)(F)F)cc1 [Compound 43, (2R)-8-({4-ethyl-5-[4-(trifluoromethyl)phenyl]-1,3-oxazol-2-yl}amino)-1,2,3,4-tetrahydronaphthalen-2-ol] |  |  |  | 2.8 | 410 | 0.14 | 0.074
5 | O[C@@H]1CCc2cccc(Nc3nc(C(F)F)c(-c4ccc(C(F)(F)F)cc4)o3)c2C1 [Compound 53, (2R)-8-({4-(difluoromethyl)-5-[4-(trifluoromethyl)phenyl]-1,3-oxazol-2-yl}amino)-1,2,3,4-tetrahydronaphthalen-2-ol] |  |  |  | 3.4 | 930 | 0.27 | 0.038
6 | Cc1nc(Nc2cccc3c2CC(O)CC3)oc1-c1ccc(OC(F)(F)F)cc1 (stereo not drawn) [Compound 9, 8-({4-methyl-5-[4-(trifluoromethoxy)phenyl]-1,3-oxazol-2-yl}amino)-1,2,3,4-tetrahydronaphthalen-2-ol] | 4 | 2100 | 0.51 |  |  |  | 0.184

More lines, in order of falling IC50 (human TRPV1 receptor), values ahead:

Row | Kp at 2 h ([1]; 30 μmol/kg oral) | concentration at 2 h [1, 2] [ng/g] | concentration at 2 h [1, 3] [µg/mL] | Kp at 2 h ([1]; 10 μmol/kg PO) | concentration at 2 h [1, 4] [ng/g] | concentration at 2 h [1, 5] [µg/mL] | IC50 (human TRPV1 receptor) [µM] | SMILES
7 |  |  |  | 1.3 | 50 | 0.04 | 0.703 | Cc1nc(Nc2cccc3c2CC(O)CC3)oc1-c1ccc(C(F)(F)F)o1 (stereo not drawn) [Compound 31, 8-({4-methyl-5-[5-(trifluoromethyl)-2-furyl]-1,3-oxazol-2-yl}amino)-1,2,3,4-tetrahydronaphthalen-2-ol]
8 | 5.6 | 600 | 0.093 |  |  |  | 0.108 | Cc1nc(Nc2cccc3c2CC(O)CC3)oc1-c1ccc(Cl)cc1 (stereo not drawn) [Compound 13, 8-{[5-(4-chlorophenyl)-4-methyl-1,3-oxazol-2-yl]amino}-1,2,3,4-tetrahydronaphthalen-2-ol]
9 | 1.7 | 230 | 0.13 |  |  |  | 0.062 | Cc1nc(Nc2cccc3c2CC(O)CC3)oc1-c1ccc(C(F)(F)F)c(F)c1F (stereo not drawn) [Compound 6, 8-({5-[2,3-difluoro-4-(trifluoromethyl)phenyl]-4-methyl-1,3-oxazol-2-yl}amino)-1,2,3,4-tetrahydronaphthalen-2-ol]
10 |  |  |  | 1.4 | 160 | 0.11 | 0.052 | Cc1nc(Nc2cccc3c2CC(O)CC3)oc1-c1ccc(S(F)(F)(F)(F)F)cc1 (stereo not drawn) [Compound 40, 8-({4-methyl-5-[4-(pentafluoro-lambda˜6˜sulfanyl)phenyl]-1,3-oxazol-2-yl}amino)-1,2,3,4-tetrahydronaphthalen-2-ol]
11 | 3 | 660 | 0.21 |  |  |  | 0.043 | Cc1nc(Nc2cccc3c2CC(O)CC3)oc1-c1ccc(C(F)(F)F)cc1F (stereo not drawn) [Compound 5, 8-({5-[2-fluoro-4-(trifluoromethyl)phenyl]-4-methyl-1,3-oxazol-2-yl}amino)-1,2,3,4-tetrahydronaphthalen-2-ol]
12 | 1.3 | 310 | 0.25 |  |  |  | 0.036 | Cc1nc(Nc2cccc3c2CC(O)CC3)oc1-c1ccc(C#N)cc1 (stereo not drawn) [Compound 15, 4-{2-[(7-hydroxy-5,6,7,8-tetrahydronaphthalen-1-yl)amino]-4-methyl-1,3-oxazol-5-yl}benzonitrile]
13 | 0 | 0 | 0 |  |  |  | 0.022 | OC1CCc2cccc(Nc3ncc(-c4ccc(C(F)(F)F)cc4)o3)c2C1 (stereo not drawn) [Compound A, 8-({5-[4-(trifluoromethyl)phenyl]-1,3-oxazol-2-yl}amino)-1,2,3,4-tetrahydronaphthalen-2-ol, reference compound]
